Experimental data from ChEMBL document CHEMBL1201862, “PubChem BioAssay data set” (2004).
Activity calls are given as the source filed them. No stated cut-off is given here; in the data, actives have a measured IC50 and inactives only a lower limit.

These molecules were tested against Envelope glycoprotein gp160 (Human immunodeficiency virus 1, UniProt Q6QLK5) (assay: inhibitors of HIV fusion peptide binding, primary screen, biochemical, uHTS, fluorescence dequenching (AID 1986)).
Sequence of Envelope glycoprotein gp160 (Q6QLK5 whole entry, the tested form may be a part): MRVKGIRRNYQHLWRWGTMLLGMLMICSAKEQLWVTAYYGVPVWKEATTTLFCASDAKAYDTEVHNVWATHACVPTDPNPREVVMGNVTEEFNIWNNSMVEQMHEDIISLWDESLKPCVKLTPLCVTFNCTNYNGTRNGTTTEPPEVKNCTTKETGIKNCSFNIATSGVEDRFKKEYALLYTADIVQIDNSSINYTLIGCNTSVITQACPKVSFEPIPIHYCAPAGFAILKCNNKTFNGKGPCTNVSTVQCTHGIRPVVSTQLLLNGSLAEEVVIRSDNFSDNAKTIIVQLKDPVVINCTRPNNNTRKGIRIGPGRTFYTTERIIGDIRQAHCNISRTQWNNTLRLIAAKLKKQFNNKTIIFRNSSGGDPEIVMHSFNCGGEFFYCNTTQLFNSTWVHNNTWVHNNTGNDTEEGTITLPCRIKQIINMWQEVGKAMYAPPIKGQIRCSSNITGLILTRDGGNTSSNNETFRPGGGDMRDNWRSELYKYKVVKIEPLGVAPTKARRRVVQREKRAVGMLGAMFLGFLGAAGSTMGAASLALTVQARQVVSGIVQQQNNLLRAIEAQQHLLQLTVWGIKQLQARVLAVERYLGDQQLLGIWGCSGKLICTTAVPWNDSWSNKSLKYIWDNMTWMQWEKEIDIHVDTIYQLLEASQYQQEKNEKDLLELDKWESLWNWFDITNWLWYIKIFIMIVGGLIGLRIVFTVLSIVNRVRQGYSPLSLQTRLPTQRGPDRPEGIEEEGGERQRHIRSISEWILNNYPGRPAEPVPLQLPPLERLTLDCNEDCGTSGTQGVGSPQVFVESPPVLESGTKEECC
In the case of `O=C(O)Cn1cc(/C=c2/sc3nc4ccccc4n3c2=O)c2ccccc21`, the IC50 is reported as 68.9 µM (active). In the case of `CSc1nc(SCC(=O)O)c2sc3nc(-c4ccccc4)c4c(c3c2n1)CCC4`, the IC50 is reported as 16.2 µM (active). For `O=C1NN(c2ccc(F)c(Cl)c2)C(=O)/C1=C\c1cccc(OC(=O)c2cccs2)c1`, the IC50 was 7.72 µM (active).
